Data taken from paper PMC4741952, “Small molecule RL71 targets SERCA2 at a novel site in the treatment of human colorectal cancer” (Oncotarget, 2015).

Molecular target: T1, SERCA2 (Homo sapiens, UniProt P16615)
T1 construct: gene ATP2A2; endogenous SERCA2 in SW480 whole-cell lysates
Assay: competition by […] free RL71 of the RL71-biotin streptavidin pull-down (LC/MS, anti-SERCA2 western blot); Ca2+-ATPase inhibition in treated SW480 cells
Format: cell-based

T1 sequence (P16615 whole entry): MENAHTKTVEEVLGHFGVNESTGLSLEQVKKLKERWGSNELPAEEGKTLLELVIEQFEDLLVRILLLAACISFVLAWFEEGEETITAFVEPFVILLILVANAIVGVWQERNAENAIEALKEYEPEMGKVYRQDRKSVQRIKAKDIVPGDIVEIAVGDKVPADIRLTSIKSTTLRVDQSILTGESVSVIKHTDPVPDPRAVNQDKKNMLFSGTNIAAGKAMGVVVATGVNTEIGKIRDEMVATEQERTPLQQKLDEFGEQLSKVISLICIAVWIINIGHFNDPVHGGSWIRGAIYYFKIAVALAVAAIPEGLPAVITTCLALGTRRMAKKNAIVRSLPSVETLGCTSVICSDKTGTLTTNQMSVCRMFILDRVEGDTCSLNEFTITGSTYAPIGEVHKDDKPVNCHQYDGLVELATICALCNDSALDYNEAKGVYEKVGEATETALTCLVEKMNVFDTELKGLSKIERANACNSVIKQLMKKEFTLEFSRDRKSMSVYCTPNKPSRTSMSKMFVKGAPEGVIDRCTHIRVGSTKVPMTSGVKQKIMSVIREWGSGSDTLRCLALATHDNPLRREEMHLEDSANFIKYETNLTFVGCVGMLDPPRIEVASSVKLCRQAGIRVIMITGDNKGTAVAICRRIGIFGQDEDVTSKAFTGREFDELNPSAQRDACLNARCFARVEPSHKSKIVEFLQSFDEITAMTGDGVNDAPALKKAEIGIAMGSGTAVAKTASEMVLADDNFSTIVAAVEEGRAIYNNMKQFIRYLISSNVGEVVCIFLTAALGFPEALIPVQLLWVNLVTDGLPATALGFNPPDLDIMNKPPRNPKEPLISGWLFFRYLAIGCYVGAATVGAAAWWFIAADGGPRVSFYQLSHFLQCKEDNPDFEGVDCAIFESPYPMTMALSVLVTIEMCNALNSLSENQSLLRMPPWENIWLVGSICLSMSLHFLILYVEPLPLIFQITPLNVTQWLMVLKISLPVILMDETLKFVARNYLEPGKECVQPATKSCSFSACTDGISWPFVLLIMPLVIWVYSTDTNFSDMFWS

## COc1cc(C=C2CN(C)CC(=Cc3cc(OC)c(OC)c(OC)c3)C2=O)cc(OC)c1OC [compound 1, 3,5-bis(3,4,5-trimethoxybenzylidene)-1-methylpiperidine-4-one]
  competition by 200 μM free RL71 of the RL71-biotin streptavidin pull-down (LC/MS): The interaction between RL71-biotin and SERCA2 could be competed by RL71.
